In data set [1] the test system is T. b. brucei Lister 427 bloodstream forms. The arrangement: method as in PMID 27175479, PMID 27703008, PMID 18557814. To be noted: no folate supplementation; read-out: reported EC50 T. brucei with no folate supplementation; cited from earlier work.
Data set [2] shares this test system. Description: T. brucei resazurin assay for MTX potentiation and folic acid supplementation. In kind it is cell-based, Trypanosoma brucei brucei. To be noted: for EC50: Trypanosoma brucei. The method, then: T. b. brucei Lister 427 bloodstream forms were grown at 37 °C and 5% CO2 in a complete HMI-9 medium, supplemented with 10% FCS and 100 UI/mL of penicillin/streptomycin. The cultures were diluted until a cell density of 2 × 10^6/mL was reached. The efficacy of compounds against T. brucei bloodstream forms was evaluated using a modified resazurin-based assay previously described.[46] The compounds were prepared from a stock solution in 10 mM DMSO and diluted in HMI-9 (supplemented or not with 1 mM folic acid, Sigma-Aldrich) to 40 μM work solution (0.4% DMSO, with the DMSO limit in the assay being 0.4%). […] The 40 μM work solution was then used to perform serial dilutions (1:2) in a 96-well plate. Upon compound addition to the test plate, the mid-log bloodstream forms were added (100 μL) in complete HMI-9 medium (supplemented or not with 1 mM folic acid) at a final cell density of 1 × 10^4/mL in a final well volume of 200 μL with a maximum DMSO concentration of 0.2%. Following incubation for 72 h at 37 °C and 5% CO2, 20 μL of 0.5 mM resazurin solution was added, and the plates were incubated further for 4 h under the same conditions. Fluorescence was measured at 540 and 620 nm excitation and emission wavelengths, respectively, using a Synergy 2 multi-mode reader (BioTek). […] This approach requires the use of both compounds at their EC50 potency in the combination, which is impossible to be detected for compound 4m having no intrinsic antiparasitic activity as a single agent at the tested concentrations. Folic acid (1 mM) was chosen on the basis of the following experiments. The stock solution of 10 mM folic acid dissolved in NaOH solution was used to perform a dose–response curve with folic acid alone to evaluate the maximum amount we could use without compromising parasite growth due to pH modification of the media. […] The IC50 values reported are the averages of the results obtained in at least two independent experiments. Pentamidine was used as the reference drug and internal control in all assays.
On the technique in general: The colour change of resazurin is a common sign of viable cells or microbes.

Data set [3] addresses T1, TbPTR1 (Trypanosoma brucei brucei, UniProt O76290).
T1 construct: made in house
T1 sequence (O76290 1-268): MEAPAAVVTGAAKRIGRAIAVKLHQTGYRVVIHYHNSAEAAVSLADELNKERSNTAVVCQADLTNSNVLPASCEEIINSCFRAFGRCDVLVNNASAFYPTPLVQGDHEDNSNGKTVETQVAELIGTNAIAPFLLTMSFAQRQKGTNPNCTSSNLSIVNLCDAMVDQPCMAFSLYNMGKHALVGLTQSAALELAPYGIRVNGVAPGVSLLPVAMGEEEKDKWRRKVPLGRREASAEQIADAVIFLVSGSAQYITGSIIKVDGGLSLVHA
Description: TbPTR1 direct enzyme inhibition assay for compounds I-X (Table S1). In kind it is biochemical. The following applies: for inhibition at 50 µM: 10 min, pH 6, 50 µM compound; for Ki: competitive inhibition mechanism assumed. The method, then: (b) PTR1 Enzyme inhibition. Compounds ICX were tested following the direct assay. The samples were incubated for
10 minutes at 30 °C, in buffer containing 50 mM Na citrate pH 3.7, TbPTR1, BH2 20 μM. (Dawson et al. Mol.
Microbiol. 2006, 61 (6), 1457–1468). Reaction start with NADPH. Compound concentrations depend on solubility and
ranged between 10C300 μM. Ki was calculated assuming a competitive inhibition mechanism.

Data set [4] concerns T. b. brucei Lister 427 bloodstream forms. Description: In vitro activity against T. brucei (HTS SYBR Green I growth inhibition assay). In kind it is cell-based, Trypanosoma brucei brucei. To be noted: for inhibition at 50 µM / EC50: Trypanosoma brucei; for inhibition at 50 µM: standard deviation within ±10% of the value, read-out: % Inhibition T. brucei at 50 μM; for % Antiparasitic Activity Tb brucei at 50uM: Table S1, compounds I-X.

A further data set has as its system mammalian cells. Description: Toxicity against mammalian cells (Table S1). In kind it is cell-based. The following applies: read-out: IC50 vs mam.cells.
The nature of data set [5]: in vitro. The arrangement: cytotoxicity, per cent cell growth of WI-38 fibroblasts. To be noted: human, wi-38 cells; read-out: % cell growth W1-38 at 10uM.
Data set [6] is described as follows: in vitro. The arrangement: cytotoxicity, per cent cell growth of A549 cells. The following applies: human, a549 cells; read-out: % cell growth A549 at 10uM.
For data set [7], the target named is T1, TbPTR1. Description: biochemical. To be noted: for inhibition at 50 µM: 50 μM compound, read-out: % Inhibition TbPTR1 at 50 μM; for IC50: dose-response 0.001-100 μM.
A further data set relates to 786-O. Description: cells. The arrangement: mitochondrial toxicity in 786-O renal carcinoma cells. The following applies: Homo sapiens, 786-0; mitochondrial toxicity.
The next data set concerns the target T2, hERG (Homo sapiens, UniProt Q12809).
T2 construct: gene KCNH2
The arrangement: hERG inhibition liability assay.

For another data set, the target named is CYP3A4 (Homo sapiens, UniProt P08684). The experiment in a line: in vitro. Set-up: cytochrome P450 isoform inhibition liability assay.
The target of another data set is CYP2D6 (Homo sapiens, UniProt P10635). The experiment in a line: in vitro. The arrangement: cytochrome P450 isoform inhibition liability assay.
Another data set concerns the target CYP2C9 (Homo sapiens, UniProt P11712). Description: in vitro. Set-up: cytochrome P450 isoform inhibition liability assay.
The target in a further data set is T3, CYP1A2 (Homo sapiens, UniProt P05177).
T3 sequence (P05177 1-516): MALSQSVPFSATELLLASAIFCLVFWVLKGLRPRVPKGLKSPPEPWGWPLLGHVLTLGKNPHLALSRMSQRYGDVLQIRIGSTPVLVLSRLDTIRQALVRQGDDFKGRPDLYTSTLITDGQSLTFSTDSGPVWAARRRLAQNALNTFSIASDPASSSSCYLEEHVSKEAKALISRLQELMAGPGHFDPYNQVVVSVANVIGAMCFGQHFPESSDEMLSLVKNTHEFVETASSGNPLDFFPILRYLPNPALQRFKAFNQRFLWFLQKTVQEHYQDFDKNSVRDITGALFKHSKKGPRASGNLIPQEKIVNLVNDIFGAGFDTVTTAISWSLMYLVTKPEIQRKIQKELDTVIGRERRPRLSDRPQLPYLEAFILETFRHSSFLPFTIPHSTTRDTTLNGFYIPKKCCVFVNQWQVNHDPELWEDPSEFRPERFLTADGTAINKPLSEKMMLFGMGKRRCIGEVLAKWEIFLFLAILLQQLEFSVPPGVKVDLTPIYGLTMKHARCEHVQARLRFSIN
The experiment in a line: in vitro. Set-up: cytochrome P450 isoform inhibition liability assay.

The target of a further data set is CYP2C19 (Homo sapiens, UniProt P33261). Description: in vitro. Set-up: cytochrome P450 isoform inhibition liability assay.
The next data set has as its target T4, hDHFR (Homo sapiens, UniProt P00374).
T4 construct: gene DHFR
T4 sequence (P00374 1-187): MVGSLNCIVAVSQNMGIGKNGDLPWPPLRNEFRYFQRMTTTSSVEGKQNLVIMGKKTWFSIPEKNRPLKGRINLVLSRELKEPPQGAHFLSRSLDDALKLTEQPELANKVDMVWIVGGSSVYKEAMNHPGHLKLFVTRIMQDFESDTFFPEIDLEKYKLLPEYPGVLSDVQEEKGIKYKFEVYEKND
The experiment in a line: biochemical. Set-up: human DHFR enzyme inhibition. The following applies: 10 uM. In short, it runs like this: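 hDHFR inhibition tested at a single concentration of 100 μM, expressed as percent inhibitory activity.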

Like-named read-outs stand apart in the source and are kept apart here.

T2 sequence (Q12809 whole entry): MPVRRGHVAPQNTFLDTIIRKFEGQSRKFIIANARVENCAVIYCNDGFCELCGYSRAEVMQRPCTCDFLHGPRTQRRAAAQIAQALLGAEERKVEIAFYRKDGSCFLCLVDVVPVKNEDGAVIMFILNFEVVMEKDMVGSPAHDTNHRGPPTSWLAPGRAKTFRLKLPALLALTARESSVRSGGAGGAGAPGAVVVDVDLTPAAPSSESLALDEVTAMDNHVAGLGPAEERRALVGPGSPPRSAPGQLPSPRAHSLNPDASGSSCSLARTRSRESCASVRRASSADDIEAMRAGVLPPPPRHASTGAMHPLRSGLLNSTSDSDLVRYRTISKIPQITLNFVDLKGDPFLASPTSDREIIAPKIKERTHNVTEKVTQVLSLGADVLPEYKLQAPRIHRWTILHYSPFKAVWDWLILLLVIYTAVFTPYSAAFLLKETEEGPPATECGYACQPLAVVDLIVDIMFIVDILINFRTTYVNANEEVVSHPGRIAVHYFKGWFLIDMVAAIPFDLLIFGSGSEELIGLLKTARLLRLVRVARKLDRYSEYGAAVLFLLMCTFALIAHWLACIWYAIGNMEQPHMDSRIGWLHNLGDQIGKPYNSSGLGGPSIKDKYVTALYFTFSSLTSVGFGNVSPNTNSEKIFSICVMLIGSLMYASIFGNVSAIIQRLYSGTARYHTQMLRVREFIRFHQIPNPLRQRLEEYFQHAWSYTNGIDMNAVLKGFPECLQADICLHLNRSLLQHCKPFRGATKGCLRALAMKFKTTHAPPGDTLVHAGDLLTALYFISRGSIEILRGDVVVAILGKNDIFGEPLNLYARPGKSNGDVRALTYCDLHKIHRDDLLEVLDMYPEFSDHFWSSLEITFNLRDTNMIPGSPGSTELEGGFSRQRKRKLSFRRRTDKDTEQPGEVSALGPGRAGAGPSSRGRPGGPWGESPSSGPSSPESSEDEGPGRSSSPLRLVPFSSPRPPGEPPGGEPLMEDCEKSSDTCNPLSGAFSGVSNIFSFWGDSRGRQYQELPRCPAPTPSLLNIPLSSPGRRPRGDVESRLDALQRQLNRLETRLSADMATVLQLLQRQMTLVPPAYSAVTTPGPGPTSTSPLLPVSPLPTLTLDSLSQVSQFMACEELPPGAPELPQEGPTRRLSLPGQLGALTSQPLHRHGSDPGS
CYP2D6, sequence (P10635 whole entry, canonical isoform): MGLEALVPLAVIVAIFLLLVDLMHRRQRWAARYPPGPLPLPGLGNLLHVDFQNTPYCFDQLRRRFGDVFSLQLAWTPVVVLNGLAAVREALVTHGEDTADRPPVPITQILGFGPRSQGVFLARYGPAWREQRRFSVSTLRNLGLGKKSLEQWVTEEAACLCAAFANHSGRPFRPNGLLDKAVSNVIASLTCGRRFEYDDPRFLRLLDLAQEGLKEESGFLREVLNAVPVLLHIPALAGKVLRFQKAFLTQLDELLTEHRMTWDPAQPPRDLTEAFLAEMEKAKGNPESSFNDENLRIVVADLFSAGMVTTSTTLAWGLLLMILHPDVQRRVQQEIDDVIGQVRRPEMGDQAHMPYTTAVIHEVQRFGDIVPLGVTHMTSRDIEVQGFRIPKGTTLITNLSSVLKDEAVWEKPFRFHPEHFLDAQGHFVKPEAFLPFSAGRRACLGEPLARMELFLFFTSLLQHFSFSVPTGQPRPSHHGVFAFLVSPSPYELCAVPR
CYP2C19, sequence (P33261 whole entry, canonical isoform): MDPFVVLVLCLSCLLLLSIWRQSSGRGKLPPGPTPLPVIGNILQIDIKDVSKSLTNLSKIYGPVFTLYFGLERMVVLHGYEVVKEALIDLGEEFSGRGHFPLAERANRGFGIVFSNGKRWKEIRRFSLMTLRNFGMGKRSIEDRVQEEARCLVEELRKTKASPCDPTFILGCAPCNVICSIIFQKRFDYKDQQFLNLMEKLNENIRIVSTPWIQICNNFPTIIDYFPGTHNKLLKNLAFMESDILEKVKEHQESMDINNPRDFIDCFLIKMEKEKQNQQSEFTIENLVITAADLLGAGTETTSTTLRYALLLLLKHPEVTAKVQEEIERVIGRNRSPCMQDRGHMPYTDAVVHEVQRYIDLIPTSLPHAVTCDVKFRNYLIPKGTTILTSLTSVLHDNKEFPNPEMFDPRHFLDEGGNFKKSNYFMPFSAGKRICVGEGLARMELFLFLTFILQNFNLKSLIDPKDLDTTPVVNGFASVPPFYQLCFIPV
CYP2C9, sequence (P11712 whole entry, canonical isoform): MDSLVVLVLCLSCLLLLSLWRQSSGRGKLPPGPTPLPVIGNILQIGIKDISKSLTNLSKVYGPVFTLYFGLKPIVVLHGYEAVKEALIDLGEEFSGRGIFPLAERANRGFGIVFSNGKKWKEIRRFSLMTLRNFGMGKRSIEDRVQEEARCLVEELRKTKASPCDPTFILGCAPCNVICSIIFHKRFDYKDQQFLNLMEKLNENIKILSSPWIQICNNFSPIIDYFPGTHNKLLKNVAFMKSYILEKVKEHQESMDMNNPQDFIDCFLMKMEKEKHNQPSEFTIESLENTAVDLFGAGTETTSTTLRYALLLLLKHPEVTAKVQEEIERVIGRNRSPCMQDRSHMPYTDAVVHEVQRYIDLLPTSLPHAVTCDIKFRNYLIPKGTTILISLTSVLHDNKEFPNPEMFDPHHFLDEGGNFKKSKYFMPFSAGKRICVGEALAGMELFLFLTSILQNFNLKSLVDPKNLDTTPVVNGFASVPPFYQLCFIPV
CYP3A4, sequence (P08684 whole entry, canonical isoform): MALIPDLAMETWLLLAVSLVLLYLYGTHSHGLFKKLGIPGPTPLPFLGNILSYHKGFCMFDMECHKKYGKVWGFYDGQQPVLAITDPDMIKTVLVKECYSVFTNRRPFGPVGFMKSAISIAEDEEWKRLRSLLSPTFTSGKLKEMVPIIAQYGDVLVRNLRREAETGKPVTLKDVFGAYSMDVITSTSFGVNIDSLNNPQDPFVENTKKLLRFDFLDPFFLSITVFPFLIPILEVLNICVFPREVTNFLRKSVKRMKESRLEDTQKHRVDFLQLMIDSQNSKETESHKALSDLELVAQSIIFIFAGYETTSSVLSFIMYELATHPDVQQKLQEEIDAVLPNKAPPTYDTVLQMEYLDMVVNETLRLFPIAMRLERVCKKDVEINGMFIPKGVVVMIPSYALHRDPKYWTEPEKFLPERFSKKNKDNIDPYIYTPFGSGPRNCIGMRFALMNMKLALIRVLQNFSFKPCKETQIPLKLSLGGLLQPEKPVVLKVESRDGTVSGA

For `CN(Cc1cnc2nc(N)nc(N)c2n1)c1ccc(C(=O)N[C@@H](CCC(=O)O)C(=O)O)cc1` [MTX, methotrexate, reference compound], the EC50 in [1] is 0.012 µM; in data set [2] (media supplemented with 9 μM folic acid, read-out: EC50 T. brucei, single agent), 35 ± 3 µM. In [2] (1 mM folic acid, MTX alone or equimolar 4m + MTX), the “effect of 1 mM folic acid on T. b. brucei growth inhibition” value is reported as “reduce the antiparasitic activity”.
As to `Nc1nnc(-c2cnccc2N)s1` [III], at TbPTR1 [3], the inhibition at 50 µM is 15% and the Ki amounted to 53 µM. In addition, in [4] (Table S1), the “EC50 T. b. brucei (compounds I-IV)” value is “not detectable”. Further, the IC50 with mammalian cells is more than 50 µM.
Turning to `Nc1nnc(NCc2cccs2)s1` [4c], the viability at 10 µM is 96.3 ± 7.6% in the data set “in vitro [5]” and 142 ± 13.8% in the data set “in vitro [6]”. Besides, the inhibition at 50 µM is less than 0% in [4] and 50.6 ± 2.6% at TbPTR1 [7]. On TbPTR1 [7], this compound displayed an IC50 of 112 µM. The inhibition at 10 µM in the data set with 786-O is 4.8 ± 2.9%; at hERG it was 87.3 ± 5.7%; on CYP3A4 it was -2.6 ± 4.5%; on CYP2D6, 27.4 ± 5.7%; on CYP2C9, -7.7 ± 4.7%; on CYP1A2, -3.2 ± 2.9%. The inhibition at 10 µM on CYP2C19 was -13.9 ± 18%. In addition, the “antiparasitic effect as single agent” value in data set [2] (compound alone, 4m at 50 μM) is recorded as “low T. brucei cell inhibitory activity”.
Consider `Nc1nnc(CCCl)s1` [I], for which the “% Antiparasitic Activity Tb brucei at 50uM” value in data set [4] is given as 90%. Also, the IC50 with mammalian cells is 4.2 ± 0.4 µM.
`Nc1nnc(CCC(=O)c2cccs2)s1` [3k]: the inhibition at 50 µM on TbPTR1 [3] came to 18%; in data set [4], 60.7%; on TbPTR1 [7], 26 ± 0.7%. This compound registered a Ki on TbPTR1 [3] of 48 µM. Further, the viability at 10 µM in the data set “in vitro [5]” was found to be 92 ± 9.7%; in the data set “in vitro [6]”, 131 ± 2.8%. The figures for the IC50 on TbPTR1 [7] and in the data set with mammalian cells were more than 70 µM and more than 50 µM, respectively. For the same compound, the inhibition at 10 µM in the data set with 786-O was -5.2 ± 3.9%; on hERG it was 0.1 ± 6.4%; on CYP3A4, 10.3 ± 7.8%; on CYP2D6 it was -20.6 ± 3.1%; at CYP2C9, -10.5 ± 2.1%; on CYP1A2 it was 4.9 ± 1.4%. Also, the inhibition at 10 µM at CYP2C19 is -3.4 ± 15.5%.
For the compound `N=C(N)c1ccc(OCCCCCOc2ccc(C(=N)N)cc2)cc1` [Pentamidine, reference compound], the EC50 came out at 0.0038 ± 0.00048 µM in [4] (read-out: EC50 T. b. brucei (reference compound, SYBR Green assay)) and 0.00228 ± 0.00118 µM in data set [2] (read-out: average EC50 T. brucei (reference drug, resazurin assay)).
In the case of `Nc1nnc(-c2ccc3[nH]nnc3c2)s1` [IV], at TbPTR1 [3], the inhibition at 50 µM is 10% and the Ki turned out to be 88 µM. Further, in data set [4], the “% Antiparasitic Activity Tb brucei at 50uM” value is recorded as 67%. Besides, the EC50 in data set [4] (Table S1, read-out: EC50 T. b. brucei (compounds I-IV)) stood at 170 µM. The IC50 in the data set on mammalian cells was determined as 51.5 µM.
In the case of `COc1ccc(-c2ccc(-c3nnc(N)s3)nc2)cc1` [1t], the viability at 10 µM is 107 ± 10.4% in the data set “in vitro [5]” and 60.7 ± 5.9% in “in vitro [6]”. The inhibition at 10 µM against hDHFR amounted to 8%; with 786-O it was 6.7 ± 17.3%; at hERG, 59.5 ± 42.9%; at CYP3A4, 8.5 ± 3.3%; at CYP2D6, 8.9 ± 2.4%; on CYP2C9 it was 19.7 ± 8.9%. In addition, the inhibition at 10 µM was 76.4 ± 1.2% at CYP1A2 and 17 ± 5.7% on CYP2C19. Moreover, the inhibition at 50 µM in [4] was 28.9%; on TbPTR1 [7], 8.3 ± 1.8%.

The EC50 is the concentration that produces a half-maximal response. A word on the inhibition: it is the relative decrease from the control value, in per cent. The Ki is the equilibrium dissociation constant of an inhibitor or competing ligand from its target. High values mean weaker binding, low ones tighter binding. As a reminder, the IC50 is the concentration that gives 50% inhibition.

(Values after paper PMC5623949, “Exploiting the 2-Amino-1,3,4-thiadiazole Scaffold To Inhibit Trypanosoma brucei Pteridine Reductase in Support of Early-Stage Drug Discovery” (ACS Omega, 2017).)
